What all share (format): in vivo
Assay [1] has as its system green peach aphid (Myzus persicae). Put plainly: Comparative Myzus persicae drench test (MYZUPE D). As to conditions: soil, 240 h, 10 dat, read-out: % efficacy. How it is done:
Solvent: 7 parts by weight of dimethylformamide
Emulsifier: 2 parts by weight of alkylaryl polyglycol ether
To produce a suitable active ingredient formulation, 1 part by weight of active ingredient is mixed with the specified amounts of solvent and emulsifier, and the concentrate is diluted with water to the desired concentration, it being necessary to take into account the volume of soil which is drenched. It should be ensured that a concentration of 40 ppm of emulsifier in the soil is not exceeded. To produce further test concentrations, water is used for dilution.
Savoy cabbage (Brassica oleracea) in pots with soil and infested by all stages of the green peach aphid (Myzus persicae) is watered with an active ingredient formulation of the desired concentration.
After the desired period of time, the efficacy in % is determined. 100% means that all the aphids have been killed; 0% means that no aphids have been killed.

Assay [2] relates to adult cat fleas (Ctenocephalides felis). Put plainly: Ctenocephalides felis in vitro contact test with adult cat fleas. The note with it: application rate 5 μg/cm^2 (=500 g/ha), after 48 h, dead or moribund fleas. How it is done:
For the coating of the test tubes, 9 mg of active compound are first dissolved in 1 ml of acetone p.a. and then diluted to the desired concentration with acetone p.a. 250 μl of the solution are distributed homogeneously on the inner walls and the base of a 25 ml glass tube by turning and rocking on an orbital shaker (rocking rotation at 30 rpm for 2 h). With 900 ppm of active compound solution and internal surface area 44.7 cm^2, given homogeneous distribution, an area-based dose of 5 μg/cm^2 is achieved.
After the solvent has evaporated off, the tubes are populated with 5-10 adult cat fleas (Ctenocephalides felis), sealed with a perforated plastic lid and incubated in a horizontal position at room temperature and ambient humidity. After 48 h, efficacy is determined. To this end, the tubes are stood upright and the fleas are knocked to the base of the tube. Fleas which remain motionless at the base or move in an uncoordinated manner are considered to be dead or moribund.
100% efficacy means that all the fleas were dead or moribund. 0% efficacy means that no fleas were harmed.

Assay [3] relates to larvae of the mustard beetle (Phaedon cochleariae). Put plainly: Comparative Phaedon cochleariae spray test (PHAECO). The note with it: 168 h, 7 dat, read-out: % efficacy. How it is done: (§1) Solvent: 14 parts by weight of dimethylformamide
(§2) Emulsifier: alkylaryl polyglycol ether
(§3) To produce a suitable active compound formulation, 1 part by weight of active compound is dissolved with the specified parts by weight of solvent and made up to the desired concentration with water containing an emulsifier concentration of 1000 ppm. To produce further test concentrations, the formulation is diluted with emulsifier-containing water. If the addition of ammonium salts or/and penetrants is required, these are each added in a concentration of 1000 ppm to the formulation solution.
Cabbage leaves (Brassica oleracea) are sprayed with an active ingredient formulation of the desired concentration and populated with larvae of the mustard beetle (Phaedon cochleariae).
After the desired time, the kill in % is determined. 100% means that all the beetle larvae have been killed; 0% means that no beetle larvae have been killed.

Assay [4] deals with caterpillars of the fall armyworm (Spodoptera frugiperda). Kind of assay: Spodoptera frugiperda spray test. The note with it: foliar, 168 h, 100 g/ha, after 7 days, maize leaf discs, read-out: efficacy. In a few lines:
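Maize leaf discs sprayed with compound formulated in acetone/dimethylformamide and diluted in water with 1000 ppm alkylaryl polyglycol ether emulsifier, then infested with fall armyworm caterpillars once dry. Efficacy read after 7 days as % caterpillars killed (100% = all dead, 0% = none).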

The test system of assay [5] is adult cat fleas (Ctenocephalides felis). Put plainly: Ctenocephalides felis oral test. The note with it: 48 h, 100 ppm in citrated cattle blood, after 2 days, read-out: efficacy (kill). The method in brief:
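Test compound in DMSO, diluted in citrated cattle blood to the test concentration and offered to ~20 unfed adults through a parafilm membrane. Kill % scored after 2 days (100% = all fleas dead, 0% = none).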

For assay [6], the system named is caterpillars of the cotton bollworm (Heliothis armigera). Put plainly: Comparative Heliothis armigera spray test (HELIAR). The note with it: Helicoverpa armigera, 168 h, 7 dat, read-out: % efficacy. How it is done: as §1, §2, §3
Cotton plants (Gossypium hirsutum) are sprayed with an active compound formulation of the desired concentration and, after drying, populated with caterpillars of the cotton bollworm (Heliothis armigera).
After the desired time, the kill in % is determined. 100% means that all caterpillars have been killed; 0% means that none of the caterpillars have been killed.

Take `CCS(=O)(=O)c1c(-c2nc3cc(C(F)(F)F)cnc3n2C)nc2cc(C3(C#N)CC3)ccn12` [Example I-11, 1-{3-(Ethylsulfonyl)-2-[3-methyl-6-(trifluoromethyl)-3H-imidazo[4,5-b]pyridin-2-yl]imidazo[1,2-a]pyridin-7-yl}cyclopropanecarbonitrile]: the Emax at 0.8 ppm in assay [1] is 95%; in assay [3] (0.8 ppm), 60%. The efficacy in assay [2] amounted to 100%. In assay [3] (4 ppm), the Emax at 4 ppm amounted to 100%. Besides, the pest or weed control at 100 g/ha in assay [4] turned out to be 100%. Further, the pest or weed control at 100 ppm in assay [5] is 100%. In addition, in assay [6], the Emax at 0.16 ppm was 100%.

Source of the values: patent USRE50663E1, “Heterocycle derivatives as pesticides” (Bayer Aktiengesellschaft, priority 2017, dated 2025).
